Experimental data taken from article PMC7180452, “Purine and Purine Isostere Derivatives of Ferrocene: An Evaluation of ADME, Antitumor and Electrochemical Properties” (Molecules, 2020).

Experiments:
[1] = test system: normal skin fibroblasts (HFF); test: Cytotoxicity on non-tumor cells, HFF; assay type: cell-based, human
Protocol: (§1) Antiproliferative activity of compounds 11a−11c, 12a−12c, 13a−13c, 14a−14c, 15a−15c, 16a, 23a−23c, 24a−24c, 25a−25c, 34a−34c and 35a−35c was evaluated in vitro on four human tumor cell lines (American Type Culture Collection, Manassas, VA, USA): metastatic colorectal adenocarcinoma (SW620), ductal pancreatic adenocarcinoma (CFPAC-1), hepatocellular carcinoma (HepG2) and cervical carcinoma (HeLa) as well as normal skin fibroblasts (HFF).

[2] = Turbidimetric kinetic solubility assay; conditions: PBS, 1% DMSO, 37 °C, 2 h, estimated range
Protocol: The turbidimetric solubility assay, which allows a rapid determination of the kinetic solubility of newly synthesized compounds using small amounts of their DMSO solutions, was used to assess the kinetic solubility [38].
The compounds’ DMSO stock solutions in concentration of 10 mM were serially diluted by factor 3.3×, 3×, 3.3× and 3× in DMSO. Prepared solutions were spiked into phosphate-buffered saline (PBS, 100 mM) to obtain final compounds’ concentrations of 100, 30, 10, 3 and 1 µM (3 µL of prepared dilutions were spiked to 297 µL of PBS, with final DMSO content of 1%, v/v). All compounds were tested in two replicas per concentration. Prepared solutions were incubated at 37 °C for 2 h with gentle shaking. Blank solutions were also prepared by spiking DMSO in PBS buffer (1% of DMSO, v/v). […] Compound/control samples are compared to the blank solution. […] Results were expressed as an estimated solubility range (lower and upper bound).

[3] = test system: ductal pancreatic adenocarcinoma (CFPAC-1); test: In vitro antiproliferative activity, CFPAC-1; assay type: cell-based, human; conditions: CFPAC-1 cells
Protocol: as §1

[4] = test system: hepatocellular carcinoma (HepG2); test: In vitro antiproliferative activity, HepG2; assay type: cell-based, human; conditions: HepG2 cells
Protocol: as §1

[5] = Chrom logD determination (fast-gradient HPLC); conditions: pH 7.4
[6] = test system: metastatic colorectal adenocarcinoma (SW620); test: In vitro antiproliferative activity, SW620; assay type: cell-based, human; conditions: SW620 cells
Protocol: as §1

[7] = test system: cervical carcinoma (HeLa); test: In vitro antiproliferative activity, HeLa; assay type: cell-based, human; conditions: HeLa cells
Protocol: as §1

Row | Structure (SMILES) | IC50 [1] [µM] | Kinetic Solubility [2] [µM] | IC50 [3] [µM] | IC50 [4] [µM] | Chrom logD [5] | IC50 [6] [µM] | IC50 [7] [µM]
1 | Clc1ncnc2c1ccn2CCn1cc(-[c-]2cccc2)nn1.[Fe+2].c1cc[cH-]c1 [Compound 34a, 4-Chloro-7-(2-(4-ferrocenyl-1,2,3-triazol-1-yl)ethyl)-7H-pyrrolo[2,3-d]pyrimidine] | > 100 | 10 to 30 | > 100 | > 100 | 4.92 | > 100 | > 100
2 | Nc1nc(Cl)c2c(ncn2Cc2cn(C[c-]3cccc3)nn2)n1.[Fe+2].c1cc[cH-]c1 [Compound 16a, 2-Amino-6-chloro-7-[1-(1-ferrocenymethyl-1,2,3-triazol-4-yl)methyl]-7H-purine] | 5.3 ± 5.36 | <1 | > 100 | > 100 | 3.37 | > 100 | > 100
3 | [Fe+2].c1cc[c-](-c2cn(CCn3ccc4c(N5CCCC5)ncnc43)nn2)c1.c1cc[cH-]c1 [Compound 34b, 4-(Pyrrolidin-1-yl)-7-[2-(4-ferrocenyl-1,2,3-triazol-1-yl)ethyl]-7H-pyrrolo[2,3-d]pyrimidine] | > 100 | 10 to 30 | > 100 | > 100 | 4.30 | > 100 | > 100
4 | Clc1ncnc2c1ncn2Cc1cn(-[c-]2cccc2)nn1.[Fe+2].c1cc[cH-]c1 [Compound 13c, 6-Chloro-9-[1-(1-ferrocenyl-1,2,3-triazol-1-yl)methyl]-9H-purine] | 6.77 ± 2.78 | >100 | 54.7 ± 5.13 | 54.7 ± 3.21 | 4.19 | 51.8 ± 1.9 | 46.8 ± 6.72
5 | Nc1ncnc2c1ncn2Cc1cn(C[c-]2cccc2)nn1.[Fe+2].c1cc[cH-]c1 [Compound 12a, 6-Amino-9-[1-(1-ferrocenymethyl-1,2,3-triazol-4-yl)methyl]-9H-purine] | 56.6 ± 15.6 | 30 to 100 | > 100 | > 100 | 2.85 | > 100 | > 100
6 | Nc1nc(Cl)c2ncn(Cc3cn(-[c-]4cccc4)nn3)c2n1.[Fe+2].c1cc[cH-]c1 [Compound 14c, 2-Amino-6-chloro-9-[1-(1-ferrocenyl-1,2,3-triazol-1-yl)methyl]-9H-purine] | 24.6 ± 4.45 | <1 | 90.5 ± 1.83 | > 100 | 3.50 | 81.3 ± 1.23 | > 100
7 | CC([c-]1cccc1)n1cc(Cn2cnc3c(Cl)ncnc32)nn1.[Fe+2].c1cc[cH-]c1 (stereo not shown) [Compound 13b, 6-Chloro-9-[1-(1-ferrocenyl-1-methylmethyl-1,2,3-triazol-4-yl)methyl]-9H-purine] | 6.79 ± 1.06 | 30 to 100 | 43.8 ± 10.9 | 38.8 ± 10.1 | 4.64 | 36.6 ± 3.42 | 40.3 ± 4.52
8 | [Fe+2].c1cc[c-](-c2cn(CCn3cnc4c(N5CCCCC5)ncnc43)nn2)c1.c1cc[cH-]c1 [Compound 35c, 6-(Piperidin-1-yl)-9-[2-(4-ferrocenyl-1,2,3-triazol-1-yl)ethyl]-9H-purine] | 6.83 ± 2.17 | 10 to 30 | > 100 | > 100 | 5.02 | > 100 | > 100
9 | Clc1ncnc2c1ncn2CCn1cc(-[c-]2cccc2)nn1.[Fe+2].c1cc[cH-]c1 [Compound 35a, 6-Chloro-9-[2-(4-ferrocenyl-1,2,3-triazol-1-yl)ethyl]-9H-purine] | 6 ± 2.99 | 10 to 30 | 65.3 ± 6.23 | 48.1 ± 7.85 | 3.70 | 78.2 ± 5.69 | 63 ± 6.06
10 | Nc1ncnc2c1ncn2Cc1cn(-[c-]2cccc2)nn1.[Fe+2].c1cc[cH-]c1 [Compound 12c, 6-Amino-9-[1-(1-ferrocenyl-1,2,3-triazol-1-yl)methyl]-9H-purine] | 54.5 ± 4.96 | 3 to 10 | > 100 | > 100 | 2.64 | > 100 | > 100
11 | CC([c-]1cccc1)n1cc(Cn2cnc3c(N)ncnc32)nn1.[Fe+2].c1cc[cH-]c1 (stereo not shown) [Compound 12b, 6-Amino-9-[1-(1-ferrocenyl-1-methylmethyl-1,2,3-triazol-4-yl)methyl]-9H-purine] | 18.4 ± 2.64 | >100 | 70.2 ± 6.5 | 68.6 ± 9.15 | 3.09 | 75 ± 8.93 | 76.4 ± 3.41
12 | [Fe+2].c1cc[c-](-c2cn(CCn3cnc4c(N5CCCC5)ncnc43)nn2)c1.c1cc[cH-]c1 [Compound 35b, 6-(Pyrrolidin-1-yl)-9-[2-(4-ferrocenyl-1,2,3-triazol-1-yl)ethyl]-9H-purine] | > 100 | 30 to 100 | > 100 | > 100 | 3.58 | > 100 | > 100
13 | Clc1ncnc2ncn(Cc3cn(-[c-]4cccc4)nn3)c12.[Fe+2].c1cc[cH-]c1 [Compound 15c, 6-Chloro-7-[1-(1-ferrocenyl-1,2,3-triazol-1-yl)methyl]-7H-purine] | 29.6 ± 4.28 | >100 | 72.2 ± 13.7 | 81.7 ± 17.1 | 3.68 | 45.5 ± 4.52 | 69.2 ± 25.5
14 | Nc1nc(Cl)c2ncn(Cc3cn(C[c-]4cccc4)nn3)c2n1.[Fe+2].c1cc[cH-]c1 [Compound 14a, 2-Amino-6-chloro-9-[1-(1-ferrocenymethyl-1,2,3-triazol-4-yl)methyl]-9H-purine] | > 100 | 30 to 100 | 49.5 ± 5.03 | 60.1 ± 5.73 | 3.62 | 60.2 ± 24.4 | 71.4 ± 16.1
15 | [Fe+2].c1cc[c-](-c2cn(CCn3ccc4c(N5CCCCC5)ncnc43)nn2)c1.c1cc[cH-]c1 [Compound 34c, 4-(Piperidin-1-yl)-7-[2-(4-ferrocenyl-1,2,3-triazol-1-yl)ethyl]-7H-pyrrolo[2,3-d]pyrimidine] | 20.2 ± 1.54 | 10 to 30 | 45.8 ± 9.11 | 57.6 ± 13.8 | 5.49 | 57.6 ± 6.55 | 71.1 ± 15.9
16 | CC([c-]1cccc1)n1cc(Cn2cnc3c(Cl)nc(N)nc32)nn1.[Fe+2].c1cc[cH-]c1 (stereo not shown) [Compound 14b, 2-Amino-6-chloro-9-[1-(1-ferrocenyl-1-methylmethyl-1,2,3-triazol-4-yl)methyl]-9H-purine] | 11.5 ± 5.09 | 30 to 100 | 67.4 ± 9.12 | 77.1 ± 5.92 | 3.90 | 98.7 ± 19.7 | > 100
